Measurements reported in US7253177B2, “Synthesis and antimalarial activity of pyrrolo[3,2-f]quinazoline-1,3-diamine derivatives” (United States of America as Represented by the Secretary of …, priority 2004, dated 2007).
Values after ≈ are worked out from the molar mass of the structure shown. Like-named read-outs stand apart in the source and are kept apart here.

Columns and labels:
[1] = system: Plasmodium falciparum D-6 clone (CDC Sierra Leone I); test: In vitro antimalarial study, [3H]hypoxanthine uptake, D-6 clone; format: cell-based; conditions: Plasmodium falciparum, read-out: IC50 D-6
Protocol: (§1) B. Antimalarial Activities: (a). In Vitro Antimalarial Studies. The in vitro assays were conducted by using a modification of the semiautomated microdilution technique of Desjardins et al and Chulay et al.. Four P. falciparum malaria parasite clones, from CDC Indochina III (W-2), CDC Sierra Leone I (D-6), Southeast Asia Isolates (TM91C235) and RCS (Isolates from Brazil) were utilized in susceptibility testing. They were derived by direct visualization and micromanipulation from patient isolates. The W-2 clone is susceptible to mefloquine but resistant to chloroquine, sulfadoxine, pyrimethamine, and quinine, whereas the D-6 clone is naturally resistant to mefloquine but susceptible to chloroquine, sulfadoxine, pyrimethamine and quinine. Test compounds were initially dissolved in DMSO and diluted 400 fold in RPMI 1640 culture medium supplemented with 25 mM Hepes, 32 mM NaHCO3 and 10% Albumax I (Gibco BRL, Grand Island, N.Y.). These solutions were subsequently serially diluted two-fold with a Biomek 1000 (Beckman, Fullerton, Calif.) over 11 different concentrations. The parasites were exposed to serial dilutions of each compound for 48 hrs and incubated at 37° C. with 5% O2, 5% CO2 and 90% N2 prior to the addition of [^3H]hypoxanthine. After a further incubation of 18 hrs, parasite DNA was harvested from each microtiter well using Packard Filtermate 196 Harvester (Meriden, Conn.) onto glass filters. Uptake of [^3H]hypoxanthine was measured with a Packard Topcount Scintillation. Concentration-response data were analyzed by a non-linear regression logistic dose response model and the IC50 values (50% inhibitory concentrations) for each compound were calculated. (Table 3). (b). In Vivo Antimalarial Studies against P. berghei in mice: The in vivo efficacy of the artelinic acid analogs were determined in a modified Thompson test. This test measures the survivability of mice and parasitemia clearance following administration of drug on days 3-5 post infection. In brief, 5×10^6 P. berghei-infected erythrocytes (KBG-173 strain) were inoculated intraperitoneally to female mice that weighed 24-30 g. By day three post-infection, parasitemia ranged from 1.0-3.7%. Each drug, dissolved in 5% sodium bicarbonate, was administered PO twice daily from day 3-5 post-infection. Total doses for each drug ranged from 1.5-384 mg/kg with 8 mice included in each dosage group. The percent suppression of parasitemia in the treated mice compared to the untreated controls was determined for each test compound; the SD-50 (fifty percent suppression dose) and SD-90 were determined from a non-linear regression logistic dose response fit at day 6 parasitemia data. Survival of mice to day 60 post-infection was considered a cure (C). Compounds were considered active (A) when the survival time of the treated mice was greater than twice the control mice, i.e., 12-14 day (Table 4-5). (c). Sporozoite Induced Test Each compound is ground with a mortar & pestle and suspended in 0.5% hydroxyethylcellulose—0.1% Tween 80 for compounds to be administered PO and those given SC are suspended in peanut oil. Each compound is prepared at 3 different dose levels as requested by WRAIR. Compounds are administered either PO or SC to mice once 4 hr before inoculation of sporozoites. Four-week-old male CD-1 mice, purchased from Charles River and weighing 16-17 g, are placed 5 per cage and allowed to acclimate for 4 days before being treated and then inoculated with sporozoites. They are fed food and water ad-lib and maintained at 76° F. with 12 hr light and 12 hr darkness. The cages and water bottles are changed biweekly. The mice are weighed on Days 0, 3 and 6 then biweekly when blood films are taken. Plasmodium yoelii (17×) is used to infect mice that will be used to infect the mosquitoes. Mice are given a single dose of test compound 4 hr before being inoculated intraperitoneally with 2.5×10^5 sporozoites of Plasmodium yoelii on Day 0. […]

[2] = system: Plasmodium falciparum W-2 clone (CDC Indochina III); test: In vitro antimalarial study, [3H]hypoxanthine uptake, W-2 clone; format: cell-based; conditions: Plasmodium falciparum, read-out: IC50 W-2
Protocol: as §1

[3] = system: D-6, RCS, W-2 and TM91C235 clones of Plasmodium falciparum; test: In vitro tests against D-6, RCS, W-2 and TM91C235 clones; format: cell-based; conditions: sensitive and drug resistant P. falciparum cell lines
Protocol: B. Antimalarial Activities: (a). In Vitro Antimalarial Studies. The in vitro assays were conducted by using a modification of the semiautomated microdilution technique of Desjardins et al and Chulay et al.. Four P. falciparum malaria parasite clones, from CDC Indochina III (W-2), CDC Sierra Leone I (D-6), Southeast Asia Isolates (TM91C235) and RCS (Isolates from Brazil) were utilized in susceptibility testing. They were derived by direct visualization and micromanipulation from patient isolates. […] Uptake of [^3H]hypoxanthine was measured with a Packard Topcount Scintillation. Concentration-response data were analyzed by a non-linear regression logistic dose response model and the IC50 values (50% inhibitory concentrations) for each compound were calculated. […] In Vivo Antimalarial Studies against P. berghei in mice: The in vivo efficacy of the artelinic acid analogs were determined in a modified Thompson test. […] The percent suppression of parasitemia in the treated mice compared to the untreated controls was determined for each test compound; the SD-50 (fifty percent suppression dose) and SD-90 were determined from a non-linear regression logistic dose response fit at day 6 parasitemia data. […]

[4] = system: Plasmodium berghei (KBG-173 strain); format: in vivo; conditions: mice, oral
Protocol: as §1

[5] = Solubility in common organic solvents and water; format: physicochemical
[6] = mice; cited from earlier work
[7] = system: Plasmodium falciparum RCS (Isolates from Brazil); test: In vitro antimalarial study, [3H]hypoxanthine uptake, RCS clone; format: cell-based; conditions: Plasmodium falciparum; P. falciparum RCS clone
Protocol: as §1

[8] = Aotus monkey; cited from earlier work
Plasmodium berghei = test: Antimalarial activity against Plasmodium berghei in mice by subcutaneous injection; format: in vivo
[9] = Death rates after single intragastric treatment in rats; format: in vivo; conditions: for Day of Death: number of deaths: rats
[10] = system: Plasmodium falciparum TM91C235 (Southeast Asia Isolates); test: In vitro antimalarial study, [3H]hypoxanthine uptake, TM91C235 clone; format: cell-based; conditions: Plasmodium falciparum, read-out: IC50 TM91C235
Protocol: as §1

P. falciparum = conditions: background, reported; cited from earlier work
P. berghei = conditions: rodent model; cited from earlier work

Compound: CCN(CC)c1nc(N(CC)CC)c2c(ccc3c2ccn3Cc2ccccc2C(F)(F)F)n1 [Compound 5, 1,3-bis-(diethylamino)-7-(2-trifluromethyl)benzyl-7H-pyrrolo[3,2-f]quinazoline]
- IC50 [1]: 46 ng/mL (≈ 98 nM)
- IC50 [2]: 104 ng/mL (≈ 222 nM)
- in vitro activity relative to lead compound 1 [3]: over ten thousand fold less active
- oral dose range giving 100% cure against P. berghei ([4]; Thompson test): 10 to 80 mg/kg
- # Mice Alive Day 30/Total ([4]; 160 mg/kg/day): 4/8
- # Mice Alive Day 30/Total ([4]; 80-10 mg/kg/day): 8/8
- # Mice Dead/Day Died ([4]; 80-10 mg/kg/day): none

Compound: Nc1nc(N)c2c(ccc3c2ccn3Cc2ccccc2C(F)(F)F)n1 [Compound 1, 7-[(2-Trifluoromethyl-phenyl)methyl]-7H-pyrrolo[3,2-f]quinazoline-1,3-diamine, reference compound]
- solubility [5]: sparingly soluble
- subcutaneous LD50 [6]: less than 20 mg/kg
- IC50 [7]: 0.357 ng/mL (≈ 0.999 nM)
- dose producing deaths / oral lethal dose [8]: less than 2 mg/kg
- # Mice Alive Day 31/Total (Plasmodium berghei; 20 mg/kg/day): 5/7
- # Mice Alive Day 31/Total (Plasmodium berghei; 40 mg/kg/day): 0/7
- # Mice Alive Day 31/Total (Plasmodium berghei; 10-2.5 mg/kg/day): 7/7
- # Mice Dead/Day Died (Plasmodium berghei; 10-2.5 mg/kg/day): none
- IC50 [1]: 0.0191 ng/mL (≈ 0.0535 nM)
- IC50 [2]: 0.445 ng/mL (≈ 1.25 nM)
- Deaths ([9]; rats n=4, single intragastric 25 mg/kg in 1% CMC suspension): 0/4
- Deaths ([9]; rats n=4, single intragastric 50 mg/kg in 1% CMC suspension): 0/4
- Deaths ([9]; rats n=4, single intragastric 100 mg/kg in 1% CMC suspension): 0/4
- Deaths ([9]; rats n=4, single intragastric 200 mg/kg in 1% CMC suspension): 1/4
- Deaths ([9]; rats n=4, single intragastric 400 mg/kg in 1% CMC suspension): 3/4
- Day of Death: number of deaths ([9]; 200 mg/kg, fourth cell after Deaths (day uncertain)): 1
- Day of Death: number of deaths ([9]; 400 mg/kg, second cell after Deaths (day uncertain)): 1
- Day of Death: number of deaths ([9]; 400 mg/kg, third cell after Deaths (day uncertain)): 2
- IC50 [10]: 1.22 ng/mL (≈ 3.41 nM)
- # Mice Alive Day 30/Total ([4]; 40 mg/kg/day): 4/5
- # Mice Dead/Day Died ([4]; 40 mg/kg/day): 1/17
- # Mice Alive Day 30/Total ([4]; 20-1.25 mg/kg/day): 5/5
- # Mice Dead/Day Died ([4]; 20-1.25 mg/kg/day): none
- IC50 against P. falciparum in vitro (P. falciparum): ~0.01 ng/mL (≈ 0.028 nM)
- 100% curative oral dose against P. berghei (P. berghei): <0.1 to 4 mg/kg
